According to patent publication US11230538B2, “Herbicides” (SYNGENTA PARTICIPATIONS AG, priority 2016, dated 2022):

Assays:
Type in all cases: in vivo
[1] = test system: Echinochloa crus-galli (ECHCG); assay: B2 Post-emergence herbicidal activity; design: key to Post-emergence herbicidal activity, ECHCG (damage score 0-5): 5=total damage to plant; 0=no damage to plant; conditions: post-emergence application, rate 1000 g/ha, evaluated after 13 days
Procedure, shortened: (§1)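 Injury was rated 13 days after treatment from 0 (no damage) to 5 (total damage). The spray, applied 8 days after sowing, was an aqueous solution of the active ingredient from an acetone/water (50:50) formulation with 0.5% Tween 20. Plants were kept at 24/16° C, 14 h light, 65% humidity.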

Setaria fabenr (SETFA) = assay: B1 Pre-emergence herbicidal activity; design: key to Pre-emergence herbicidal activity, SETFA (damage score 0-5): 5=total damage to plant; 0=no damage to plant; conditions: pre-emergence application, rate 1000 g/ha, evaluated after 13 days
Procedure, shortened: (§2)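 Damage was rated 13 days after treatment, from 0 for none to 5 for total. The spray, in acetone/water 50:50 with 0.5% Tween 20, was applied pre-emergence, one day after seeds were sown in soil. Plants grew under glasshouse control at 24/16 °C, 14 h light, 65% humidity.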

[2] = test system: Echinochloa crus-galli (ECHCG); assay: B1 Pre-emergence herbicidal activity; design: key to Pre-emergence herbicidal activity, ECHCG (damage score 0-5): 5=total damage to plant; 0=no damage to plant; conditions: pre-emergence application, rate 1000 g/ha, evaluated after 13 days
Procedure, shortened: as §2

[3] = test system: Triticum aestivium (TRZAW); assay: B2 Post-emergence herbicidal activity; design: key: 5=total damage to plant; 0=no damage to plant; conditions: post-emergence application, rate 1000 g/ha, evaluated after 13 days
Procedure, shortened: as §1

Setaria fabenri (SETFA) = assay: B2 Post-emergence herbicidal activity; design: key: 5=total damage to plant; 0=no damage to plant; conditions: post-emergence application, rate 1000 g/ha, evaluated after 13 days
Procedure, shortened: as §1

[4] = test system: Alopecurus myosuroides (ALOMY); assay: B2 Post-emergence herbicidal activity; design: key: 5=total damage to plant; 0=no damage to plant; conditions: post-emergence application, rate 1000 g/ha, evaluated after 13 days
Procedure, shortened: as §1

Lolium perenne (LOLPE) [5] = assay: B1 Pre-emergence herbicidal activity; design: key to Pre-emergence herbicidal activity, LOLPE (damage score 0-5): 5=total damage to plant; 0=no damage to plant; conditions: pre-emergence application, rate 1000 g/ha, evaluated after 13 days
Procedure, shortened: as §2

[6] = test system: Triticum aestivium (TRZAW); assay: B1 Pre-emergence herbicidal activity; design: key: 5=total damage to plant; 0=no damage to plant; conditions: pre-emergence application, rate 1000 g/ha, evaluated after 13 days
Procedure, shortened: as §2

Avena fatua (AVEFA) [7] = assay: B1 Pre-emergence herbicidal activity; design: key: 5=total damage to plant; 0=no damage to plant; conditions: pre-emergence application, rate 1000 g/ha, evaluated after 13 days
Procedure, shortened: as §2

[8] = test system: Alopecurus myosuroides (ALOMY); assay: B1 Pre-emergence herbicidal activity; design: key: 5=total damage to plant; 0=no damage to plant; conditions: pre-emergence application, rate 1000 g/ha, evaluated after 13 days
Procedure, shortened: as §2

Lolium perenne (LOLPE) [9] = assay: B2 Post-emergence herbicidal activity; conditions: post-emergence application, rate 1000 g/ha, evaluated after 13 days
Procedure, shortened: as §1

Avena fatua (AVEFA) [10] = assay: B2 Post-emergence herbicidal activity; conditions: post-emergence application, rate 1000 g/ha, evaluated after 13 days
Procedure, shortened: as §1

Compound	Post-emergence herbicidal activity, ECHCG (damage score 0-5) [1]	Pre-emergence herbicidal activity, SETFA (damage score 0-5) (Setaria fabenr (SETFA))	Pre-emergence herbicidal activity, ECHCG (damage score 0-5) [2]	Post-emergence herbicidal activity, TRAZW (damage score 0-5) [3]	Post-emergence herbicidal activity, SETFA (damage score 0-5) (Setaria fabenri (SETFA))	Post-emergence herbicidal activity, ALOMY (damage score 0-5) [4]	Pre-emergence herbicidal activity, LOLPE (damage score 0-5) (Lolium perenne (LOLPE) [5])	Pre-emergence herbicidal activity, TRAZW (damage score 0-5) [6]	Pre-emergence herbicidal activity, AVEFA (damage score 0-5) (Avena fatua (AVEFA) [7])	Pre-emergence herbicidal activity, ALOMY (damage score 0-5) [8]	Post-emergence herbicidal activity, LOLPE (damage score 0-5) (Lolium perenne (LOLPE) [9])	Post-emergence herbicidal activity, AVEFA (damage score 0-5) (Avena fatua (AVEFA) [10])
O=C(Nc1ccc(-c2cncnc2)nc1C(F)(F)F)C1CC1 [Compound C109]	5	4	4	1	5	0	1	0	2	0	2	3
O=C1CCC(=O)N1c1ccc(-c2cncnc2)nc1C(F)(F)F [Compound C110]	5	4	4	1	5	0	1	0	3	0	2	3
O=C(Nc1ccc(-c2cncc(F)c2)nc1C(F)(F)F)C1CCCC1 [Compound C111]	5	5	4	0	5	1	1	0	2	1	2	4
O=CNc1ccc(-c2cncc(F)c2)nc1C(F)(F)F [Compound C112]	4	4	3	1	1	0	1	0	2	1	3	3
O=C(O)CCC(=O)Nc1ccc(-c2cncc(F)c2)nc1C(F)(F)F [Compound C113, 4-[[6-(5-fluoro-3-pyridyl)-2-(trifluoromethyl)-3-pyridyl]amino]-4-oxo-butanoic acid]	5	5	5	3	5	1	1	0	2	0	3	4
COCC(=O)Nc1ccc(-c2cncc(F)c2)nc1C#N [Compound C114, N-[2-cyano-6-(5-fluoro-3-pyridyl)-3-pyridyl]-2-methoxy-acetamide]	4	5	4	1	5	1	0	0	1	0	1	2
